Drawing on patent EP1345943B1, “INHIBITORS OF PAPILLOMA VIRUS” (BOEHRINGER INGELHEIM (CANADA) LTD., priority 2000, dated 2002), this text covers IC50 for 41 compounds.

In this assay the target is E1-E2-DNA complex (Human papillomavirus 11, UniProt P04015). Description: E2-dependent E1 DNA binding assay (E1-E2 DNA assay). To be noted: E1-E2 DNA assay of Example 11, HPV-11. Put shortly: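 SPA-format binding of E1 (about 100-200 ng purified) and E2 (8 ng) to a 0.4 ng [33P]-labelled 400 bp HPV-11 origin probe, in 20 mM Tris pH 7.6, 100 mM NaCl, 1 mM DTT, 1 mM EDTA, for 1 h at room temperature. Complex captured 1 h with anti-E1 C-terminal antiserum on protein A-SPA beads and counted by scintillation; IC50 derived.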
Chain of E1-E2-DNA complex (P04015 whole entry, one chain of several): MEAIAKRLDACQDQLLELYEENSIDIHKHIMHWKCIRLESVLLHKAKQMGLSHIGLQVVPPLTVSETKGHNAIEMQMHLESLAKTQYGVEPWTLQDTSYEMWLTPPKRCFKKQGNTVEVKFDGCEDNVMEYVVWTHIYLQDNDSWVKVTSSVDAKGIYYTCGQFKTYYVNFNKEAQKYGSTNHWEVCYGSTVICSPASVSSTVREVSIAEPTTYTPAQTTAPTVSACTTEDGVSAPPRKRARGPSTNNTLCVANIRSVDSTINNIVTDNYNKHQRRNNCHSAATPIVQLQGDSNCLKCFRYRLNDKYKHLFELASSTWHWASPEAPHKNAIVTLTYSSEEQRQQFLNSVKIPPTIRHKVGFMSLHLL
As for `O=C(Nc1ccc(Oc2ccccc2)cc1)C1C(c2ccc(Cl)c(Cl)c2)OC2(C(=O)c3ccccc3C2=O)C1C(=O)O` (centres unmarked) [Compound 1049], the IC50 (as a rule, the point on the concentration scale where inhibition reaches its midpoint) was 0.5 to 5 µM. The figure for `O=C(Nc1ccc(-c2csnn2)cc1)C1C(c2ccc(F)c(F)c2)OC2(C(=O)c3ccccc3C2=O)C1C(=O)O` (centres unmarked) [Compound 1083] is 0.5 to 5 µM. In the case of `Cc1cccc(C2OC3(C(=O)c4ccccc4C3=O)C3C(=O)N(c4ccc5c(c4)OCO5)C(=O)C23)c1` (centres unmarked) [Compound 2014], the IC50 lay within 5 to 50 µM. Take `Nc1ccc(N2C(=O)C3C(c4ccc(Cl)c(Cl)c4)OC4(C(=O)c5ccccc5C4=O)C3C2=O)cc1` (centres unmarked) [Compound 2019]: the IC50 was in the range of 0.5 to 5 µM. `O=C(NC1CC1c1ccccc1)C1C(c2ccc(Br)c(Br)c2)OC2(C(=O)c3ccccc3C2=O)C1C(=O)O` (single isomer, unassigned) [Compound 1089] yielded an IC50 below 0.5 µM. The figure for `O=C(Nc1ccc(Cl)cc1)C1C(c2ccc(Cl)c(Cl)c2)OC2(C(=O)c3ccccc3C2=O)C1C(=O)O` (centres unmarked) [Compound 1063] is 0.5 to 5 µM. As for `COc1ccccc1NC(=O)C1C(c2ccc(Cl)c(Cl)c2)OC2(C(=O)c3ccccc3C2=O)C1C(=O)O` (centres unmarked) [Compound 1124], the half-inhibitory concentration (IC50) fell in the range of 0.5 to 5 µM. The figure for `CC(=O)Nc1ccc(NC(=O)C2C(c3ccc(Cl)c(Cl)c3)OC3(C(=O)c4ccccc4C3=O)C2C(=O)O)cc1` (centres unmarked) [Compound 1108] is 0.5 to 5 µM; for `O=C(Nc1ccccc1)C1C(c2ccc(Br)c(Br)c2)OC2(C(=O)c3ccccc3C2=O)C1C(=O)O` (racemic) [Compound 1074] it is below 0.5 µM; for `Cc1cccc(C2OC3(C(=O)c4ccccc4C3=O)C(C(=O)O)C2C(=O)Nc2ccc3c(c2)OCO3)c1` (centres unmarked) [Compound 1018] it is 5 to 50 µM. As for `CC(=O)c1ccc(NC(=O)C2C(c3ccc(Cl)c(Cl)c3)OC34C(=O)c5cc(C)sc5C3(O)OC(=O)C24)cc1` (single isomer, unassigned) [Compound D1001], the figure is below 0.5 µM. The figure for `Cc1ccc2c(c1)C(=O)C1(OC(c3ccc(Br)c(Br)c3)C(C(=O)Nc3ccc(-c4csnn4)cc3)C1C(=O)O)C2=O` (centres unmarked) [Compound A1009] is 5 to 50 µM.

Take `O=C(c1ccccc1)c1cccc(NC(=O)C2C(c3ccc(Br)c(Br)c3)OC3(C(=O)c4ccccc4C3=O)C2C(=O)O)c1` (centres unmarked) [Compound 1103]: the 50% inhibitory concentration (IC50) lay within 0.5 to 5 µM.

For the compound `CC(=O)c1ccc(NC(=O)C2C(c3ccc(Cl)c(Cl)c3)OC3(C(=O)c4ccc(Cl)cc4C3=O)C2C(=O)O)cc1` (centres unmarked) [Compound 1116], the IC50 was in the range of 5 to 50 µM. Turning to `O=C(Nc1ccc(-c2csnn2)cc1)C1C(c2ccc(Br)c(Br)c2)OC2(C(=O)c3ccccc3C2=O)C1C(=O)O` (single isomer, unassigned) [Compound A1002], the 50% inhibitory concentration (IC50) was below 0.5 µM. As for `O=C(Nc1ccc(Cl)cc1)C1C(c2ccc(Cl)cc2)OC2(C(=O)c3ccccc3C2=O)C1C(=O)O` (centres unmarked) [Compound 1010], the figure is 5 to 50 µM. The figure for `O=C(Nc1ccc2c(c1)OCO2)C1C(c2ccc(Cl)cc2)OC23C(=O)c4ccccc4C2(O)OC(=O)C13` (racemic) [Compound 3005] is 5 to 50 µM; for `O=C(Nc1ccc2c(c1)OCO2)C1C(c2ccc3ccccc3c2)OC2(C(=O)c3ccccc3C2=O)C1C(=O)O` (centres unmarked) [Compound 4001] it is 0.5 to 5 µM; for `Cc1ccc2c(c1)C(=O)C13OC(c4ccc(Br)c(Br)c4)C(C(=O)NCCc4ccccc4Cl)C1C(=O)OC23O` (single isomer, unassigned) [Compound B1006] it is 0.5 to 5 µM.

`CC(C)(C)c1ccc(NC(=O)C2C(c3ccc(Cl)c(Cl)c3)OC3(C(=O)c4ccccc4C3=O)C2C(=O)O)cc1` (centres unmarked) [Compound 1060] had a 50% inhibitory concentration (IC50) of 0.5 to 5 µM.

In turn, `O=C(Nc1ccc(OC(F)(F)F)cc1)C1C(c2ccc(Br)c(Br)c2)OC2(C(=O)c3ccccc3C2=O)C1C(=O)O` (centres unmarked) [Compound 1118] had an IC50 of 0.5 to 5 µM.

`O=C(Nc1ccc2c(c1)OCO2)C1C(c2ccc(Cl)c(Cl)c2)OC2(C(=O)c3cccc(F)c3C2=O)C1C(=O)O` (centres unmarked) [Compound 1048]: the IC50 fell in the range of 0.5 to 5 µM. As to `COC(=O)C1C(C(=O)Nc2ccc3c(c2)OCO3)C(c2ccc(Cl)cc2)OC12C(=O)c1ccccc1C2=O` (centres unmarked) [Compound 1017], the IC50 lay within 5 to 50 µM. As for `O=C1C2C(c3ccc(Cl)cc3)OC3(C(=O)c4ccccc4C3=O)C2C(=O)N1c1ccc(Cl)cc1` (centres unmarked) [Compound 2007], the figure is 5 to 50 µM; as for `O=C1C2C(c3cccc(Cl)c3)OC3(C(=O)c4ccccc4C3=O)C2C(=O)N1c1ccc2c(c1)OCO2` (centres unmarked) [Compound 2005], 0.5 to 5 µM; as for `Cc1ccc2c(c1)C(=O)C1(OC(c3ccc(Cl)c(Cl)c3)C(C(=O)Nc3ccc4c(c3)OCO4)C1C(=O)O)C2=O` (single isomer, unassigned) [Compound A1004], 5 to 50 µM.

`COc1ccc(OC)c(CCNC(=O)C2C(c3ccc(Cl)c(Cl)c3)OC3(C(=O)c4ccccc4C3=O)C2C(=O)O)c1` (centres unmarked) [Compound 1137] registered an IC50 of 0.5 to 5 µM.

In the case of `CC(=O)c1ccc(NC(=O)C2C(C=C(C)c3ccccc3)OC3(C(=O)c4ccccc4C3=O)C2C(=O)O)cc1` (racemic) [Compound 4008], the IC50 lay within 5 to 50 µM. As for `O=C(Nc1ccc(F)cc1F)C1C(c2ccc(Cl)cc2)OC2(C(=O)c3ccccc3C2=O)C1C(=O)O` (centres unmarked) [Compound 1009], the figure is 5 to 50 µM; as for `CSc1ccc(NC(=O)C2C(c3ccc(F)c(F)c3)OC3(C(=O)c4ccccc4C3=O)C2C(=O)O)cc1` (centres unmarked) [Compound 1073], 5 to 50 µM. Compound `COc1cccc(C2OC3(C(=O)c4ccccc4C3=O)C(C(=O)O)C2C(=O)Nc2ccc3c(c2)OCO3)c1` (racemic) [Compound 1023] had an IC50 of 5 to 50 µM. As for `CC(NC(=O)C1C(c2ccc(Cl)c(Cl)c2)OC23C(=O)c4ccccc4C2(O)OC(=O)C13)c1ccccc1` (centres unmarked) [Compound 3100], the figure is 5 to 50 µM. Compound `Cc1cccc2c1C(=O)C1(OC(c3ccc(Cl)c(Cl)c3)C(C(=O)Nc3ccc4c(c3)OCO4)C1C(=O)O)C2=O` (centres unmarked) [Compound 1042] yielded an IC50 of 0.5 to 5 µM. As for `Cc1ccc2c(c1)C1(O)OC(=O)C3C(C(=O)Nc4ccc(N5CCOCC5)cc4)C(c4ccc(Br)c(Br)c4)OC31C2=O` (single isomer, unassigned) [Compound B1003], the figure is below 0.5 µM. As for `N#Cc1cccc(C2OC3(C(=O)c4ccccc4C3=O)C(C(=O)O)C2C(=O)Nc2ccc(N3CCOCC3)cc2)c1` (centres unmarked) [Compound 1085], the figure is 5 to 50 µM. The figure for `O=C(Nc1ccc2c(c1)OCO2)C1C(c2ccc(C(F)(F)F)cc2)OC2(C(=O)c3ccccc3C2=O)C1C(=O)O` (centres unmarked) [Compound 1016] is 5 to 50 µM. The compound `Cc1cc2c(s1)C1(O)OC(=O)C3C(C(=O)Nc4ccc(CNC(=O)OC(C)(C)C)cc4)C(c4ccc(Br)c(Br)c4)OC31C2=O` (single isomer, unassigned) [Compound D1003] displayed a half-maximal inhibitory concentration (IC50) below 0.5 µM. As for `CC(C)(C)c1ccc(NC(=O)C2C(c3ccc(Br)c(Br)c3)OC3(C(=O)c4ccccc4C3=O)C2C(=O)O)cc1` (centres unmarked) [Compound 1079], the figure is 5 to 50 µM. The figure for `O=C(NCc1ccccc1)C1C(c2ccc(Cl)c(Cl)c2)OC23C(=O)c4ccccc4C2(O)OC(=O)C13` (racemic) [Compound 3011] is 0.5 to 5 µM; for `O=C(Nc1ccccc1Br)C1C(c2cc(Cl)cc(Cl)c2)OC2(C(=O)c3ccccc3C2=O)C1C(=O)O` (centres unmarked) [Compound 1142] it is below 0.5 µM. `COC(=O)C1C(C(=O)Nc2ccc3c(c2)OCO3)C(c2ccc(Cl)c(Cl)c2)OC12C(=O)c1ccccc1C21CO1` (racemic) [Compound 7001] showed an IC50 of 5 to 50 µM.
